biological target: SARS-CoV-2 Main Protease (SARS-CoV-2) (UniProt P0DTD1); conditions: not given

| SMILES | IC50 |
| --- | --- |
| O=C1OC(c2cccs2)=N/C1=C\c1ccc(N2CCOCC2)s1 | 0.706 µM |
| O=C(Cn1nnc2ccccc21)N(Cc1cccc(Cl)c1)c1ccc(N2CCOCC2)cc1 | 3.79 µM |
| O=C(Cc1cncc2ccccc12)Nc1cc(Cl)cc(OC2CCC(=O)N2)c1 (stereo not given) | 19.4 µM |
| CN(C)c1ccc(N(Cc2cccc(Cl)c2)C(=O)Cn2nnc3ccccc32)cc1 | 0.391 µM |
| COc1ccc2c(NC(=O)C3CCOc4ccc(Cl)cc43)noc2c1 (stereo not given) | 53.4 µM |
| CC(C)CCN1C(=O)C(=O)c2cc(Br)ccc21 | 24.3 µM |
| COc1ccc2c(NC(=O)Cc3cccc(Cl)c3)[nH]nc2c1 | 52 µM |
| Cc1ccc(NC2=C(c3ccccc3)C(=O)N(Cc3cccnc3)C2=O)c(C)c1 | 54.6 µM |
| Cc1ccc(N(Cc2cccc(Cl)c2)C(=O)Cn2nnc3ccccc32)cc1 | 3.3 µM |
| Cc1ccn2cnnc2c1NC(=O)Cc1cccc(Cl)c1 | 83.4 µM |
| Cc1ccncc1NC(=O)C(C)c1cc(Cl)cc(OC2CC(=O)N2)c1 (stereo not given) | 88.1 µM |
| Cc1ccncc1NC(=O)Cc1cc(Cl)cc(-c2cnn(C)c2C(F)F)c1 | 16 µM |
| O=C(Nc1cncc2ccccc12)C1(CCC2CC2)CCOc2ccc(Cl)cc21 (stereo not given) | 93.9 µM |
| COc1ccccc1OCCC(=O)Nc1cncc2ccccc12 | 85.4 µM |
| O=C(Cc1cccc(Cl)c1)Nc1cncc2nc[nH]c12 | 7.97 µM |
| C[C@H]1C[C@@H](C(=O)Nc2cncc3ccccc23)c2cc(Cl)ccc2O1 (stereo in doubt) | 45.4 µM |
| CCC(=O)Nc1ccc(N(Cc2cscn2)C(=O)Cn2nnc3ccccc32)cc1 | 46.1 µM |
| O=C(Nc1cc(=O)[nH]c2ccccc12)C1CCOc2ccc(Cl)cc21 (stereo not given) | 48 µM |
| N#Cc1ccccc1NC(=O)[C@@H](c1ccccc1)N1Cc2ccccc2C1=O (stereo in doubt) | 57.9 µM |
| COc1c(Cl)cccc1OCCNC(=O)c1cc(=O)[nH]c2ccccc12 | 16.5 µM |
| O=C(Nc1n[nH]c2ccnc(Br)c12)C1CCOc2ccc(Cl)cc21 (stereo not given) | 74.2 µM |
| O=C(NCC1=[SH]C=CC1)[C@@H](c1ccccc1)N1Cc2ccccc2C1=O (stereo in doubt) | 82 µM |
| Nc1nn(C(=O)C2CCOc3ccc(Cl)cc32)c2cc(F)ccc12 (stereo not given) | 53.3 µM |
| O=C(Cc1cccc(Cl)c1)Nc1cccc2[nH]ncc12 | 23.6 µM |
| CCN(c1ccccc1)S(=O)(=O)c1ccc(OC)c(NC(=O)CCl)c1 | 6.96 µM |
| O=C1CC(C(=O)Nc2cncc3ccccc23)c2cc(Br)ccc2N1 (stereo not given) | 1.12 µM |

| SMILES | IC50 |
| --- | --- |
| CC(C)(C)c1ccc(N(C(=O)c2ccc(Cl)o2)C(C(=O)NCCc2cccc(F)c2)c2cccnc2)cc1 (stereo not given) | 0.515 µM |
| COc1ccc(Cl)cc1OCCNC(=O)c1cc(=O)[nH]c2cccc(OC)c12 | 0.19 µM |
| Cc1ccncc1NC(=O)Cc1cc(Cl)cc(OCc2cc(-c3ccc(Cl)cc3)no2)c1 | 48.8 µM |
| COc1ccc2c(N)nn(C(=O)C3CCOc4ccc(Cl)cc43)c2c1 (stereo not given) | 62.1 µM |
| Cc1nc(CN2C(=O)C(=O)c3cc(Br)ccc32)cs1 | 18 µM |
| Cc1cc(O)c2c(c1)C1(O)CC(C2=O)C2=C1C(=O)c1c(O)cccc1C2=O (stereo not given) | 58.2 µM |
| Cc1ccncc1NC(=O)Cc1cc(Cl)cc(NC2CCCC2O)c1 (stereo not given) | 38.9 µM |
| Cc1ccncc1N1CCC(c2cccc(Cl)c2)S1(=O)=O (stereo not given) | 68.2 µM |
| O=C(Nc1cccc(F)c1)[C@@H](c1ccccc1)N1Cc2ccccc2C1=O (stereo in doubt) | 59.9 µM |
| Cc1c(C(=O)CCl)c2ccccn2c1C(=O)c1ccc(F)cc1 | 0.706 µM |
| N#Cc1ncn(CC(=O)Nc2ccc(Br)cc2Cl)n1 | 2.87 µM |
| Cc1ccncc1NC(=O)Cc1cc(Cl)cc(OCc2nnc(C3CCCCC3)o2)c1 | 13.3 µM |
| O=C(Nn1nnc2ccccc21)C(Cc1cccc(Cl)c1)c1ccc(N2CCCCC2=O)cc1 (stereo not given) | 81.8 µM |
| Cc1ccncc1NC(=O)Cc1cc(Cl)cc(OCc2ncn[nH]2)c1 | 81 µM |
| O=C(COc1cccc(Cl)c1)Nc1cncc2ccccc12 | 6.02 µM |
| Cc1ccncc1NC(=O)Cc1cc(Cl)cc(OC2COC2)c1 | 15.3 µM |
| Cc1cc(C(F)(F)F)nc2c1c(N)nn2C(=O)C1CCOc2ccc(Cl)cc21 (stereo not given) | 57.8 µM |
| O=C(CCc1cccc(Cl)c1)Nc1cncc2ccccc12 | 19.3 µM |
| Cc1ccncc1NC(=O)Cc1cc(Cl)cc(NS(N)(=O)=O)c1 | 14.5 µM |
| Cc1ccncc1NC(=O)Cc1cc(Cl)cc(-c2ccc(C3(C)CCO3)cc2)c1 (stereo not given) | 15.3 µM |
| Cc1ccncc1NC(=O)Cc1cc(Cl)cc(S(N)(=O)=O)c1 | 13.1 µM |
| COc1ccc(Cl)cc1OCCNC(=O)c1cc(=O)[nH]c2ccccc12 | 0.692 µM |
| O=C(Cc1cncc2ccccc12)N(CCC1CCCCC1)c1cccc(Cl)c1 | 1.02 µM |
| O=C(Cc1cccc(Cl)c1)Nc1cncc2c1CCCC2 | 1.84 µM |
| Cc1ccncc1NC(=O)Cc1cc(Cl)cc(NC2CC2C(F)(F)F)c1 (stereo not given) | 19.7 µM |

same assay, conditions: 20.0 µM

| SMILES | inhibition |
| --- | --- |
| CC(=O)N1CCN(Cc2ccsc2)CC1 | 98.5% |
| CC(=O)N1CCN(Cc2cccs2)CC1 | 96.7% |

same assay, conditions: 50.0 µM

| SMILES | inhibition |
| --- | --- |
| O=C1OC(c2cccs2)=N/C1=C\c1ccc(N2CCOCC2)s1 | 91.7% |
| C[C@H]1O[C@H](C)C2Oc3cc(O)c4c(=O)c5c6c7c8c(cc(=O)c9c(O)c1c2c(c3c47)c98)O[C@@H]6[C@@H](C)O[C@@H]5C (stereo in doubt) | 0% |
| Cc1oncc1C(=O)Nc1ccc(S(F)(F)(F)(F)F)cc1 | 0% |
| Cc1ccncc1NC(=O)Cc1cc(Cl)cc(NS(C)(=O)=O)c1 | 54.6% |
| CC(C)[C@H](NC(=O)OCc1ccccc1)C(=O)NC(C=O)Cc1ccccc1 (stereo in doubt) | 0% |
| O=C(NC[C@@]1(COc2ccc(C(F)(F)F)cn2)C[C@@H](O)[C@@H](O)C1)Nc1cccnc1 | 0% |
| OC[C@H]1O[C@H]([S][Au])[C@H](O)[C@@H](O)[C@@H]1O (stereo in doubt) | 83.1% |
| O=C(Cc1cccc(Cl)c1)Nc1cncc2nc[nH]c12 | 79.5% |
| CC12CCCC(O1)c1c(cc3c(c1O)C(=O)c1c(O)cc(O)cc1C3=O)O2 (stereo not given) | 26.4% |
| C=C1CCC[C@H]2[C@](C)(CC3=C(O)C(=O)C=C(OC)C3=O)[C@@H](C)CC[C@]12C (stereo in doubt) | 2.35% |
| Cc1ccncc1NC(=O)Cc1cc(Cl)cc(OCCN2CCOCC2C)c1 (stereo not given) | 23.9% |
| CCN(c1ccccc1)S(=O)(=O)c1ccc(OC)c(NC(=O)CCl)c1 | 61.2% |
| Cc1cc(C(=O)CCl)c(C)n1NC(=O)c1n[nH]c(=O)c2ccccc12 | 42.3% |
| COc1ccc2c(=O)cc(-c3ccc(OCc4ccccc4)cc3)oc2c1 | 10.7% |
| O=C(O)c1cn(-c2ccc(F)cc2)c2cc(N3CCNCC3)c(F)cc2c1=O | 20% |
| CC(C)(C)c1ccc(N(C(=O)c2ccc(Cl)o2)C(C(=O)NCCc2cccc(F)c2)c2cccnc2)cc1 (stereo not given) | 69.3% |

| SMILES | inhibition |
| --- | --- |
| Cc1ccncc1NC(=O)Cc1cc(Cl)cc(OCc2cc(-c3ccc(Cl)cc3)no2)c1 | 41.8% |
| O=C(CC(C[S][Au])C(=O)[O][Na])[O][Na] (stereo not given) | 39.1% |
| Cc1cc(O)c2c(c1)C1(O)CC(C2=O)C2=C1C(=O)c1c(O)cccc1C2=O (stereo not given) | 81.1% |
| Cc1oncc1C(=O)Nc1ccc(C(F)(F)F)cc1 | 0% |
| Cc1ccncc1NC(=O)Cc1cc(Cl)cc(NC2CCCC2O)c1 (stereo not given) | 61.5% |
| CC(C)(C)c1ccc(N(C(=O)c2ccco2)[C@H](C(=O)NCCc2cccc(F)c2)c2cccnc2)cc1 | 100% |
| CC[P](CC)(CC)=[Au][S][C@@H]1O[C@H](COC(C)=O)[C@@H](OC(C)=O)[C@H](OC(C)=O)[C@H]1OC(C)=O (stereo in doubt) | 100% |
| CN(CC(=O)Nc1ccccc1Br)C(=O)CCl | 52.3% |
| Cc1c(C(=O)CCl)c2ccccn2c1C(=O)c1ccc(F)cc1 | 94.7% |
| Cc1ccncc1NC(=O)Cc1cc(Cl)cc(OCc2nnc(C3CCCCC3)o2)c1 | 100% |
| O=c1c(O)c(-c2cc(OCc3ccccc3)ccc2OCc2ccccc2)oc2ccccc12 | 0.254% |
| CC(C)(O)CC1C2=C(Oc3c1c1c(c4ccccc34)OC(C)(C)C=C1)C(=O)c1ccccc1C2=O (stereo not given) | 3.92% |
| CC(=O)N1CCN(Cc2ccsc2)CC1 | 97.4% |
| CC(=O)N1CCN(Cc2cccs2)CC1 | 95.7% |
| Cc1ccncc1NC(=O)Cc1cc(Cl)cc(NS(N)(=O)=O)c1 | 87.9% |
| Cc1ccncc1NC(=O)Cc1cc(Cl)cc(S(N)(=O)=O)c1 | 64% |
